# According to patent EP4813377A1, “PHARMACEUTICAL COMPOSITION FOR PREVENTING OR TREATING HEAD AND NECK CANCER” (Astrion Inc., priority 2023, dated 2025):
# Tests used:
# FaDu cells [1] = assay: CCK assay, cell proliferation; assay type: cell-based, human; details: 0.5-4 µM, 48 hours, absorbance at 450 nm, FIG. 1
# Method: (§1) FaDu cells and squamous cell carcinoma-25 (SCC-25) cells, which are human head and neck cancer cell lines, were seeded in 96-well plates at a density of 1 x 10^5 cells/well and cultured for 24 hours. Thereafter, the cells were treated with compound AON-MG23 of the present invention at various concentrations and cultured for 48 hours. The cells were treated with the compound of the present invention at various concentrations of 0 µM, 0.5 µM, 1 µM, 2 µM, and 4 µM. 10 µL of cell counting kit (CCK) reagent was added and allowed to react for one hour, and then the absorbance was measured at 450 nm.
# SCC-25 cells [2] = assay: CCK assay, cell proliferation; assay type: cell-based, human; details: 0.5-4 µM, 48 hours, absorbance at 450 nm, FIG. 1
# Method: as §1
# FaDu cells [3] = assay: cell migration assay (SPLScar Block plates); assay type: cell-based; details: Homo sapiens, 17 hours, FIG. 3A, read-out: inhibition of migration compared to the control group
# Method: (§2) Human head and neck cancer cell lines, FaDu cells and SCC-25 cells, were seeded in SPLScar Block plates (SPL) at a density of 7.2 x 10^4/well and cultured for 24 hours. After 24 hours, the blocks were removed, and at the same time, compound AON-MG23 of the present invention was applied at various concentrations. Thereafter, cells were cultured in a CO2 incubator at 37 °C for 17 hours. Specifically, the FaDu cells were treated with compound AON-MG23 of the present invention at concentrations of 0 µM, 0.25 µM, 0.5 µM, 1 µM, and 2 µM, and the SCC-25 cells were also treated at concentrations of 0 µM, 0.25 µM, 0.5 µM, 1 µM, and 2 µM. Photographs were taken before and after each culture, and the migration distance of the cells was measured using Image J software. Based on the results, the inhibition of the cell migration was analyzed.
# SCC-25 cells [4] = assay: cell migration assay (SPLScar Block plates); assay type: cell-based; details: Homo sapiens, 17 hours, FIG. 3B, read-out: inhibition of migration compared to the control group
# Method: as §2
# FaDu cells [5] = assay: drug combination effect, SRB assay with Bliss scoring; assay type: cell-based, human; details: five days co-treatment, score > 0 = synergistic
# Method: The combination effect of compound AON-MG23 of the present invention was confirmed using Bliss scoring based on the results of the sulforhodamine B assay (SRB assay). Specifically, human head and neck cancer cell line FaDu cells were plated in a 96-well cell culture plate at a density of 1 x 10^3 cells/well. On the next day, in order to confirm the combination effect with compound AON-MG23 of the present invention, a drug, paclitaxel or osimertinib, was diluted to concentrations for testing, and cells were treated with the diluted drug and then cultured for five days. […] The absorbance of the dissolved solution was measured at 540 nm using a plate reader. The measured absorbance values were compared to the control group and converted into percentages, and the combination effect was analyzed using the percentage data at an analysis website (https://synergyfinder.fimm.fi/). The presence of a combination effect was evaluated according to the following criteria based on relevant literature (Bliss, C. I. (1939). The toxicity of poisons applied jointly. Annals of Applied Biology, 26(3), 585-615.): a score > 0 indicates a synergistic effect; a score = 0 indicates an independent effect; and a score < 0 indicates an antagonistic effect.
# EGFR protein = assay: Western blot of protein expression; assay type: cell-based, human; details: 48 hours, concentration-dependent
# Method: (§3) Human head and neck cancer cell lines, FaDu cells and SCC-25 cells, were seeded in 60 mm dishes at a density of 5 × 10^5 cells and cultured for 24 hours. Thereafter, the FaDu cells were treated with compound AON-MG23 of the present invention at concentrations of 0 µM, 0.25 µM, 0.5 µM, 1 µM, 2 µM, and 4 µM, and the SCC-25 cells were treated with the compound at concentrations of 0 µM, 0.25 µM, 0.5 µM, 1 µM, and 2 µM. The cells were cultured for 48 hours. After culture, the cells were recovered, and the recovered cells were lysed to perform Western blot. As antibodies used for Western blot, an anti-ANO1 antibody (Abcam, ab53212), an anti-EGFR antibody (Cell Signaling, #4267S), and an anti-glyceraldehyde 3-phosphate dehydrogenase (GAPDH) antibody (Santacruz, #SC-5286) were used. Protein concentration was quantified using the […] (Protein Quantitation Assay, BSA assay) (Pierce, Cat.23225). After lysing the cells, the proteins obtained therefrom were separated by molecular weight using 10% sodium dodecyl sulfate-polyacrylamide gel electrophoresis (SDS-PAGE) with equal amounts (20 µg). After transferring the proteins to a polyvinylidene fluoride (PVDF) membrane (Bio-Rad), the proteins were treated with a 5% blocking buffer (5% skim milk in Tris-buffered saline (TBS) buffer containing 0.1% Tween 20 (TBS-T)) at room temperature for one hour. Subsequently, the membrane was treated with a primary antibody, which was allowed to react at 4 °C for 16 hours. After the reaction was complete, the membrane was washed three times with TBS-T. Subsequently, the membrane was treated with a secondary antibody labeled with horseradish peroxidase at room temperature for one hour and then visualized using an enhanced chemiluminescence (ECL) kit (Bio-Rad). The amount of each protein was quantified and analyzed using Image J software.
# ANO1 protein = assay: Western blot of protein expression; assay type: cell-based, human; details: 48 hours, concentration-dependent
# Method: as §3
# FaDu cells [6] = assay: Matrigel Transwell invasion assay; assay type: cell-based, human; details: 0.25-2 µM, 24 hours, FIG. 4A
# Method: (§4) Human head and neck cancer cell lines, FaDu cells and SCC-25 cells, were seeded at a density of 6 x 10^4 cells/well on top of filters coated with Matrigel (Transwell invasion chamber, Corning). Thereafter, the FaDu cells were treated with compound AON-MG23 of the present invention at concentrations of 0 µM, 0.25 µM, 0.5 µM, 1 µM, and 2 µM, and the SCC-25 cells were also treated with the compound at concentrations of 0 µM, 0.25 µM, 0.5 µM, 1 µM, and 2 µM. Cells were cultured in a CO2 in an incubator at 37 °C for 24 hours. After culture, cell fixation and staining were performed using the Diff-Quick stain Kit (Sysmex, Kobe, Japan). The stained cells were imaged under a microscope, and the cells were counted and statistically analyzed using Image J software.
# SCC-25 cells [7] = assay: Matrigel Transwell invasion assay; assay type: cell-based, human; details: 0.25-2 µM, 24 hours, FIG. 4B
# Method: as §4
# FaDu cells [8] = assay: clonogenic assay; assay type: cell-based, human; details: 0.125-1 µM, nine days, FIG. 2
# Method: To confirm the proliferation inhibitory effect of compound AON-MG23 of the present invention on head and neck cancer cells, a clonogenic assay was conducted. Specifically, head and neck cancer cell line FaDu cells were plated in a 6-well cell culture plate at a density of 250 cells per well. On the next day, the cell culture medium was removed and replaced with a cell culture medium containing compound AON-MG23 of the present invention at concentrations of 0 µM, 0.125 µM, 0.25 µM, 0.5 µM, and 1 µM. After culturing the cells for nine days, the resulting cell colonies were stained and photographed, and then the cell colonies were counted and analyzed using Image J software.
# [9] = SCC-25 cells, 0.25-2 µM, FIG. 5B
compound,measurement,setting,value
"COc1cc(N2CCC(N(C)C)CC2)ccc1Nc1ncc(Cl)c(Nc2ccccc2N(C2CC2)S(C)(=O)=O)n1 [AON-MG23, N-(2-((5-chloro-2-((4-(4-(dimethylamino)piperidin-1-yl)-2-methoxyphenyl)amino)pyrimidin-4-yl)amino)phenyl)-N-cyclopropylmethanesulfonamide]",proliferation of head and neck cancer cells,FaDu cells [1],inhibited the proliferation of head and neck cancer cells
same,proliferation of head and neck cancer cells,SCC-25 cells [2],inhibited the proliferation of head and neck cancer cells
same,inhibition at 2 µM,FaDu cells [3],≥ 80%
same,inhibition at 1 µM,SCC-25 cells [4],~90%
same,Bliss synergy score,"FaDu cells [5]; combination with osimertinib, FIG. 6B",19.25
same,Bliss synergy score,"FaDu cells [5]; combination with paclitaxel, FIG. 6A",6.72 points
same,EGFR protein level,"EGFR protein; FaDu cells, 0.25-4 µM, FIG. 5A",significantly inhibited
same,EGFR protein level,EGFR protein; [9],significantly inhibited
same,ANO1 protein level,"ANO1 protein; FaDu cells, 0.25-4 µM, FIG. 5A",significantly inhibited
same,ANO1 protein level,ANO1 protein; [9],significantly inhibited
same,degree of penetration into Matrigel,FaDu cells [6],reduced degree of penetration into Matrigel compared to the untreated control group
same,degree of penetration into Matrigel,SCC-25 cells [7],reduced degree of penetration into Matrigel compared to the untreated control group
same,clonogenesis,FaDu cells [8],clonogenesis of the FaDu cells was inhibited
